Measurements: the supplement of paper PMC10307832

Columns and labels:
Assay in all cases: relative viability (nuclei count vs DMSO), 5 days (fraction); higher = more cells survive
TGX 221 + OSI-027 = compound: CC1=CN2C(=O)C=C(N=C2C(=C1)C(C)NC3=CC=CC=C3)N4CCOCC4 [TGX 221] + COc1cccc2cc(-c3nc([C@H]4CC[C@H](C(=O)O)CC4)n4ncnc(N)c34)[nH]c12 [OSI-027] (partner 0.5 µM)
Outline: (§1)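 A single step with final 0.05% Triton X-100, 1% formaldehyde and 1 ug/ml Hoechst fixed the cells and stained nuclei 5 days after treatment. Lung cancer cell lines in 1536-well plates had been treated by pin tool the day after seeding with one drug alone or a fixed anchor-drug dose plus five library-drug doses (not always all listed) in √10 steps, and nuclei were counted on 4× images. Relative viability is the ratio of nuclei in treated wells to nuclei in vehicle wells, taken as the median of duplicate plates.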

TGX 221 + Olaparib = compound: CC1=CN2C(=O)C=C(N=C2C(=C1)C(C)NC3=CC=CC=C3)N4CCOCC4 [TGX 221] + O=C(c1cc(Cc2n[nH]c(=O)c3ccccc23)ccc1F)N1CCN(C(=O)C2CC2)CC1 [Olaparib] (partner 8 µM)
Outline: as §1

[1] = compound: O=C(CCCCCCNC(=O)c1cnc(N(c2ccccc2)c2ccccc2)nc1)NO [Ricolinostat] + CS(=O)(=O)N1CCN(Cc2cc3nc(-c4cccc5[nH]ncc45)nc(N4CCOCC4)c3s2)CC1 [Pictilisib] (partner 1 µM)
Outline: as §1

Ricolinostat + Olaparib = compound: O=C(CCCCCCNC(=O)c1cnc(N(c2ccccc2)c2ccccc2)nc1)NO [Ricolinostat] + O=C(c1cc(Cc2n[nH]c(=O)c3ccccc23)ccc1F)N1CCN(C(=O)C2CC2)CC1 [Olaparib] (partner 8 µM)
Outline: as §1

Cell Line	relative viability (TGX 221 + OSI-027; first compound 0.08 µM)	relative viability (TGX 221 + OSI-027; first compound 0.253 µM)	relative viability (TGX 221 + OSI-027; first compound 0.8 µM)	relative viability (TGX 221 + OSI-027; first compound 2.53 µM)	relative viability (TGX 221 + OSI-027; first compound 8 µM)	relative viability (TGX 221 + Olaparib; first compound 0.08 µM)	relative viability (TGX 221 + Olaparib; first compound 0.253 µM)	relative viability (TGX 221 + Olaparib; first compound 0.8 µM)	relative viability (TGX 221 + Olaparib; first compound 2.53 µM)	relative viability (TGX 221 + Olaparib; first compound 8 µM)	relative viability ([1]; first compound 0.08 µM)	relative viability ([1]; first compound 0.253 µM)	relative viability ([1]; first compound 0.8 µM)	relative viability ([1]; first compound 2.53 µM)	relative viability (Ricolinostat + Olaparib; first compound 0.08 µM)	relative viability (Ricolinostat + Olaparib; first compound 0.253 µM)	relative viability (Ricolinostat + Olaparib; first compound 0.8 µM)	relative viability (Ricolinostat + Olaparib; first compound 2.53 µM)
NCI-H596	0.748	0.688	0.803	0.487	0.693	0.662	0.675	0.746	0.744	0.572	0.399	0.399	0.378	0.335	0.699	0.676	0.693	0.526
NCI-H1650	0.648	0.55	0.737	0.661	0.529	0.684	0.704	0.954	0.719	0.642	0.423	0.523	0.395	0.347	0.767	0.632	0.823	0.579
NCI-H1437	0.878	0.899	0.809	0.848	0.728	0.649	0.589	0.678	0.603	0.632	0.38	0.414	0.36	0.223	0.628	0.595	0.598	0.409
PC-3 [JPC-3]	0.756	0.775	0.788	0.751	0.806	1.12	1.02	1.25	1.06	1.07	0.669	0.808	0.673	0.456	0.865	1.06	1.07	0.971
NCI-H1395	0.542	0.525	0.61	0.475	0.544	0.452	0.438	0.411	0.399	0.393		0.636	0.511	0.597		0.44	0.479	0.433
NCI-H1651	0.555	0.632	0.63	0.59	0.586	0.183	0.199	0.166	0.161	0.18	0.612	0.55	0.571	0.44	0.194	0.174	0.184	0.164
CAL-12T	0.604	0.471	0.821	0.486	0.567	0.705	0.709	0.72	0.678	0.747	0.339	0.479	0.344	0.388	0.739	0.732	0.701	0.77
NCI-H23	0.506	0.613	0.594	0.456	0.517	0.302	0.287	0.284	0.296	0.294	0.381	0.572	0.475	0.309	0.351	0.278	0.27	0.275
NCI-H2228	0.654	0.522	0.638	0.453	0.463	0.557	0.529	0.471	0.532	0.541	0.309	0.407	0.355	0.24	0.647	0.548	0.476	0.45
NCI-H661	0.748	0.695	0.689	0.673	0.706	0.743	0.764	0.765	0.748	0.76		0.412	0.422	0.727	0.654	0.75	0.706	0.558
